From US20220356163A1, “SMALL MOLECULE INHIBITORS OF Id PROTEINS” (MEMORIAL SLOAN KETTERING CANCER CENTER, priority 2019, published 2022) come the findings set out here.

The test system of test [1] is new blood vessel formation. The test is described as follows: Matrigel plug anti-angiogenic assay. Type of test: in vivo, mouse. To be noted: in plugs 25 μg/mg or daily ip 30 or 100 mg/kg, 10 days. As to the method:
VEGF-165 and FGF-2 treated Matrigel plugs will be implanted on Day 0 into C57BL/6 mice. Mice will be treated with either vehicle, AGX51, or a compound of the present technology (such as AGX-A). The AGX51 and a compound of the present technology will be provided either in the plugs (25 μg/mg) or by daily ip treatment (30 or 100 mg/kg) for 10 days. Plugs will be harvested on Day 10, fixed and paraffin embedded. Three sections ([…]) of each plug will be stained with an anti-CD31 antibody and counterstained with hematoxylin and eosin stain. CD31-positive microvessels will be counted for one entire cross-section per plug and the average micro-vessel density±SD vessels will be determined. Student's t-test will be used for statistical analysis.

A further test concerns MDA-MB-453. The test is described as follows: MTT assay, MDA-MB-453. Type of test: cell-based. Further details: scale not given here. To be noted: MDA-MB-453, HER-2 +ve cell line, 24 hours. The source says: (§1) The 4T1 murine mammary tumor cell line and nine breast cancer cell lines representing the major breast cancer subtypes (ER+, HER2+, and TNBC) including MDA-MB-157, MDA-MB-436, MDA-MB-231, MDA-MB-453, MDA-MB-361, BT-474, SK-BR-3, MCF-7 and T47-D will be grown in RPMI or DMEM (Dulbecco's Modified Eagle Medium) media supplemented with 10% FBS (fetal bovine serum), 1% penicillin-streptomycin and 1% L-Glutamine. Patient derived xenograft cell lines BR7, BR11, and IBT will be established directly from breast cancer bone metastases specimens surgically resected from patients with informed consent. BR7 and BR11 specimens will be obtained from ER positive (HER2 negative and PR negative) metastatic breast cancer patients, while the IBT specimen will be obtained from a metastatic, triple negative breast cancer patient. Fresh tumor tissues will be quickly washed with ice cold PBS and minced into about 1-3 mm pieces in MEM medium (without FBS) using sterile razor blades. […] The cells will be treated with either 100 μM DMSO, AGX51, or a compound of the present technology such as AGX-A. The cell morphology and growth will be monitored daily for 1 week by microscopy for changes in morphology or cell death. […] Absorbance will then measured at 570 nm using a plate reader (Synergy 2, BioTek). […]

A further test has as its system HCT116 cells. Briefly: HCT116 MTT viability, cell cycle and Cyclin D1. It is filed as cell-based. Particulars: HCT116, 40 μM. As to the method: (§2) Immunoblotting. For immunoblotting, cells were collected by trypsinization, washed with PBS and lysed in homogenization buffer (0.3 M sucrose, 10 mM Tris (pH 8.0), 400 mM sodium chloride, 3 mM magnesium chloride, 0.5% NP40/IGEPAL, 100 μg/mL Aprotinin+Protease inhibitor cocktail (Roche #11 836 153 001). Proteins were separated by SDS-PAGE, transferred to a membrane (LI-COR), probed with primary antibodies overnight at 4° C., and probed with secondary antibodies (LI-COR) for 1-2 hours at room temperature. Proteins were visualized using the LI-COR Odyssey Infrared Imaging detection system. The following primary antibodies were used Id1, Id2, Id3, Id4 (195-14, 9-2-8, 17-3, 82-12, respectively, all from Biocheck), Cyclin D1 (2978, Cell Signaling), Actin (A2066, Sigma), Tubulin (T4026, Sigma). Western blot quantification was carried out using channel 700 and channel 800 intensity data from Odyssey application software version 3.0.30 (LI-COR), subtracting blank values and normalizing to Tubulin.
(§3) Cell viability assays. Cell lines were seeded in a 96 well plate (5000 cells per well). After overnight incubation, cells were treated with AGX51 and incubated for 24 hours then MTT reagent (5 mg/mL) was added per well and the cells were incubated for four hours. Following incubation, media was aspirated and 200 μL DMSO was added per well. Absorbance was then measured at 570 nm using a plate reader (Synergy 2, BioTek). Cell growth profiles were determined by seeding 38,000 cells in a 24-well plate, in triplicate for each time point, and counting the cells on days 1, 3 and 5 after seeding, using trypan blue exclusion of dead cells.
(§4) Cell cycle analysis. […] For cell cycle analysis cells were centrifuged 1000 rpm for 5 minutes, washed with 1×PBS and then resuspended in 0.5 mL PI/RNase staining buffer (550825, BD Biosciences), incubated for 15 minutes at room temperature and analyzed by flow cytometry (LSR II).

The subject of the next test is HUVEC. The test is described as follows: HUVEC growth, cell cycle and Cyclin D1. Type of test: cell-based, human. As to the method:
as §2, §3, §4

The test system of a further test is MDA-MB-436. Briefly: MTT assay, MDA-MB-436. Type of test: cell-based. Particulars: Homo sapiens, 24 h, MDA-MB-436, TNBC cell line, read-out: IC50 value after 24 hours of treatment.
Excerpt: as §1
(Formazan colour is commonly taken as a measure of viable cells.)

For the compound `CCC(=O)N(CCC(c1ccc2c(c1)OCO2)c1ccccc1OC)Cc1ccccc1` (racemic) [AGX51, N-(3-(benzo[d][1,3]dioxol-5-yl)-3-(2-methoxyphenyl)propyl)-N-benzylpropionamide], the “new blood vessel formation in Matrigel plugs” value in test [1] is on record as “significant protection from new blood vessel formation”. In the test with MDA-MB-453, the “percentage at 60 μM (IC50 NA)” value is reported as “NA (60 μM = 57%)”. Also, the “Cyclin D1 levels” value is recorded as “reduction in Cyclin D1 levels” in the test with HCT116 cells (0-48 hours) and “reduction in Cyclin D1 levels” with HUVEC (0-40 μM, 24 hours). Moreover, the cell cycle result in the test on HCT116 cells (4-24 hours) is listed as “G0/G1 growth arrest”; in the test on HUVEC (20 μM, 24 hours), “G0/G1 growth arrest”. Also, the cell viability entry in the test on HCT116 cells (24 hours) and in the test on HUVEC (20 μM) was “reduced cell viability” in each case. Moreover, the IC50 in the test with MDA-MB-436 was found to be 30.9 µM.

The term IC50 denotes the concentration that gives 50% inhibition.
